Measured values: patent US8093052B2, “Serum-free culture medium for the production of recombinant gonadotropins” (Ares Trading S.A., priority 2005, dated 2012)
Where two headings read alike, the source gives them in different places.

How the values were obtained:
[1] = system: CHO cell line expressing both subunits of human FSH; experiment: Total viable cells ratio (TVC ratio) during antioxidant test period; assay type: cell-based, Chinese Hamster; conditions: end of test/start of test, >=1.0 = no toxic effect
Method: (§1) All experiments were performed with a CHO cell line expressing both subunits of human FSH. The produced protein is a dimeric gonadotropin further referred to as rFSH. The alpha subunit corresponds to SwissProt Accession No. P01215 and the beta subunit corresponds to SwissProt Accession No. P01225.
(§2) At least 2.4.10^9 viable rFSH-producing cells were transferred to a 15 L bioreactor with an effective working volume of 11 L (newMBR, Zürich) comprising microcarriers. Immediately after seeding followed a batch phase that lasted for two or three days. The bioreactor was then continuously fed with SFM to a dilution rate of 1 day^−1 and to a perfusion rate at 11 L·day)^−1.
The total viable cell concentration is defined as the sum of the concentration of cells attached on microcarriers and the concentration of viable cells in suspension.
The Total Viable Cells Ratio (TVC Ratio) for was calculated as follows: [total viable cell concentration, end of test]/[total viable cell concentration, start of test] wherein the start of test is defined as the day at which a new antioxidant is introduced in the culture, and the end of test is defined as the day before the next antioxidant is introduced in the culture.
(§3) The total viable cell concentration, the GCR and the rFSH titers were measured daily.

oxidized forms of rFSH = experiment: Oxidized forms of rFSH by RP-HPLC on crude harvest of CHO culture in serum-free medium with antioxidant; assay type: cell-based, human; conditions: for ranking of antioxidants for obtaining low levels of rFSH oxidized forms: Runs 1 and 2, Table II; for antioxidant quality from analyses of oxidized rFSH forms: antioxidant added to the culture medium, runs 3 to 5
Method: as §1
The medium used for cell cultivation was a basic serum-free medium (SFM) designed for cultivation of CHO cells. The SFM medium was supplemented with the antioxidant to be tested as detailed in Example 3.
as §2
Growth phase and production phase were performed at the same pH and temperature (37° C., pH=7). The Dissolved Oxygen (DO) was maintained at 50% air saturation during the whole run.
Oxidized forms were determined by RP-HPLC on crude harvest as described by Bassett and Driebergen (Bassett and Driebergen, 2005).
SFM was supplemented with several antioxidant or combination of antioxidants in order to reach the final concentration shown in Table II. Each antioxidant or combination of antioxidants was tested for a period of about ten days. The first day of the test, the volume of antioxidant solution necessary to reach the set-point was added. Every day thereafter, a certain amount of antioxidant was washed out from the bioreactor by perfusion and replaced by one time addition (for a dilution rate of 1 d^−1, 63.2% of the bioreactor volume was renewed every 24 h and this represents the amount of antioxidant to be replaced every day). At the end of the test period, the antioxidant was washed out from the bioreactor by perfusion, and replaced by another antioxidant to be tested.
The percentage of oxidized forms of rFSH was measured at the end of each test (table II).
One run (run 3) was performed to test various concentrations of L-glutathione (from 1 to 20 mg/L), and one run (run 4) was performed to test various concentrations of L-methionine (from 0.25 to 3 g/L) and. […] Working Day zero (WDO) is defined as the day during which the bioreactor is seeded. Production Day zero (PDO) is defined as the day during which the cell culture process is switch from growth phase to production phase. In addition, a run was performed without varying the antioxidant concentration. In this run, the L-methionine was added at 250 mg/L from the beginning (run 5). For all runs, the percentage of oxidized forms of rFSH was measured regularly (table IV).

[2] = system: CHO cell line expressing both subunits of human FSH
Method: The rFSH titer was measured by an immunofluorimetric assay, using the Delphia hFSH kit from Wallac-ADL (Cat. No. A017-201).
The glucose consumption rate (GCR), expressed in gram per liter and per day, was calculated as follows: GCR=(G0−Gt)Dt+(Gt−1−Gt)
G stands for “Glucose concentration” and D stands for “dilution rate”. The indexes refer to the following:
as §3

Compound: O=C1O[C@H]([C@@H](O)CO)C(O)=C1O [L-ascorbic acid]
- TVC Ratio ([1]; Run 1, 10 mg/L, WD20 to WD30): 1.3
- oxidized forms (normalized value) (oxidized forms of rFSH; Run 1, 10 mg/L, measured WD30, divided by 23.4% (L-cysteine 280 mg/L, run 2)): 0.74
- % of oxidized forms (oxidized forms of rFSH; Run 1, mean concentration 10 mg/L, tested WD20 to WD30, measured WD30): 17.3%

Compound: OCCS [2-mercaptoethanol]
- TVC Ratio ([1]; Run 1, 10 mg/L, WD50 to WD60): 0.8
- oxidized forms (normalized value) (oxidized forms of rFSH; Run 1, 10 mg/L, measured WD59, divided by 23.4% (L-cysteine 280 mg/L, run 2)): 0.53
- % of oxidized forms (oxidized forms of rFSH; Run 1, mean concentration 10 mg/L, tested WD50 to WD60, measured WD59): 12.3%
- ranking of antioxidants for obtaining low levels of rFSH oxidized forms (oxidized forms of rFSH): best antioxidants for obtaining low levels of rFSH oxidized forms

Compound: CC(=O)N[C@@H](CS)C(=O)O [N-acetyl-L-cysteine]
- TVC Ratio ([1]; Run 2, 260 mg/L, WD30 to WD40): 1.3
- oxidized forms (normalized value) (oxidized forms of rFSH; Run 2, 260 mg/L, measured WD38, divided by 23.4% (L-cysteine 280 mg/L, run 2)): 0.77
- % of oxidized forms (oxidized forms of rFSH; Run 2, mean concentration 260 mg/L, tested WD30 to WD40, measured WD38): 18.1%

Compound: CSCC[C@H](N)C(=O)O [L-methionine]
- impact on viability of the cells, metabolism and productivity patterns ([2]; in the range of concentration tested (runs 3 to 5), data not shown): did not have any major impact
- TVC Ratio ([1]; Run 1, 186 mg/L, WD30 to WD40): 1.4
- TVC Ratio ([1]; Run 1, 734 mg/L, WD60 to WD70): 1.0
- oxidized forms (normalized value) (oxidized forms of rFSH; Run 1, 186 mg/L, measured WD38, divided by 23.4% (L-cysteine 280 mg/L, run 2)): 0.61
- oxidized forms (normalized value) (oxidized forms of rFSH; Run 1, 734 mg/L, measured WD70, divided by 23.4% (L-cysteine 280 mg/L, run 2)): 0.60
- % of oxidized forms (oxidized forms of rFSH; Run 1, mean concentration 186 mg/L, tested WD30 to WD40, measured WD38): 14.3%
- % of oxidized forms (oxidized forms of rFSH; Run 1, mean concentration 734 mg/L, tested WD60 to WD70, measured WD70): 14.0%
- % oxidized forms (oxidized forms of rFSH; Run 4, mean concentration 250 mg/L, measured WD19): 15.37%
- % oxidized forms (oxidized forms of rFSH; Run 4, mean concentration 500 mg/L, measured WD28): 14.26%
- % oxidized forms (oxidized forms of rFSH; Run 4, mean concentration 1000 mg/L, measured WD40): 13.56%
- % oxidized forms (oxidized forms of rFSH; Run 4, mean concentration 2000 mg/L, measured WD49): 9.77%
- % oxidized forms (oxidized forms of rFSH; Run 4, mean concentration 3000 mg/L, measured WD59): 12.66%
- % oxidized forms (oxidized forms of rFSH; Run 5, 250 mg/L from the beginning, measured WD16-17): 16.91%
- % oxidized forms (oxidized forms of rFSH; Run 5, 250 mg/L from the beginning, measured WD20-21): 14.45%
- % oxidized forms (oxidized forms of rFSH; Run 5, 250 mg/L from the beginning, measured WD22-23): 12.94%
- % oxidized forms (oxidized forms of rFSH; Run 5, 250 mg/L from the beginning, measured WD24-25): 12.16%
- % oxidized forms (oxidized forms of rFSH; Run 5, 250 mg/L from the beginning, measured WD26-27): 10.54%
- % oxidized forms (oxidized forms of rFSH; Run 5, 250 mg/L from the beginning, measured WD28-29): 12.83%
- % oxidized forms (oxidized forms of rFSH; Run 5, 250 mg/L from the beginning, measured WD30-31): 13.21%
- decrease of average percentage of oxidized forms (oxidized forms of rFSH; Run 5, 250 mg/L, compared to run 1 and run 2 with L-cysteine as antioxidant): around 40%
- ranking of antioxidants for obtaining low levels of rFSH oxidized forms (oxidized forms of rFSH): best antioxidants for obtaining low levels of rFSH oxidized forms
- antioxidant quality from analyses of oxidized rFSH forms (oxidized forms of rFSH): good antioxidant

Compound: N[C@@H](CCC(=O)N[C@@H](CS)C(=O)NCC(=O)O)C(=O)O [L-glutathione]
- impact on viability of the cells, metabolism and productivity patterns [2]: did not have any major impact
- TVC Ratio ([1]; Run 1, 3 mg/L, WD40 to WD50): 1.2
- oxidized forms (normalized value) (oxidized forms of rFSH; Run 1, 3 mg/L, measured WD50, divided by 23.4% (L-cysteine 280 mg/L, run 2)): 0.61
- % of oxidized forms (oxidized forms of rFSH; Run 1, mean concentration 3 mg/L, tested WD40 to WD50, measured WD50): 14.2%
- decrease of percentage of oxidized forms (oxidized forms of rFSH; Run 3, 2.5 mg/L, compared to run 1 and run 2 with L-cysteine as antioxidant): around 35%
- % oxidized forms (oxidized forms of rFSH; Run 3, mean concentration 1 mg/L, measured WD19): 18.31%
- % oxidized forms (oxidized forms of rFSH; Run 3, mean concentration 2.5 mg/L, measured WD28): 14.26%
- % oxidized forms (oxidized forms of rFSH; Run 3, mean concentration 5 mg/L, measured WD40): 23.99%
- ranking of antioxidants for obtaining low levels of rFSH oxidized forms (oxidized forms of rFSH): best antioxidants for obtaining low levels of rFSH oxidized forms
- antioxidant quality from analyses of oxidized rFSH forms (oxidized forms of rFSH): good antioxidant

Compound: N[C@@H](CS)C(=O)O [L-cysteine, reference compound]
- oxidized forms (normalized value) (oxidized forms of rFSH; Run 1, 280 mg/L, measured WD20, divided by 23.4% (L-cysteine 280 mg/L, run 2)): 0.92
- % of oxidized forms (oxidized forms of rFSH; Run 1, mean concentration 280 mg/L, tested WD10 to WD20, measured WD20): 21.5%
- oxidized forms (normalized value) (oxidized forms of rFSH; Run 2, 280 mg/L, measured WD20, the reference itself (23.4%)): 1.00
- oxidized forms (normalized value) (oxidized forms of rFSH; Run 2, 350 mg/L, measured WD50, divided by 23.4% (L-cysteine 280 mg/L, run 2)): 0.88
- % of oxidized forms (oxidized forms of rFSH; Run 2, mean concentration 280 mg/L, tested WD0 to WD20, measured WD20): 23.4%
- % of oxidized forms (oxidized forms of rFSH; Run 2, mean concentration 350 mg/L, tested WD40 to WD50, measured WD50): 20.5%
